Consider eleven compounds from patent publication US12492173B2, “Herbicidal substituted N-tetrazolyl aryl carboxamides” (Bayer Aktiengesellschaft, priority 2019, dated 2025).

The subject of one assay is Matricaria inodora. Nature of the assay: Pre-emergence herbicidal action, MATIN. It counts as in vivo. Further details: key to Herbicidal action against MATIN: % activity: 100 = plants have died, 0 = like control plants. To be noted: comparative experiment, 20 g of a.i./ha. In a few lines: (§1)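 Pre-emergence soil spray over sandy loam-covered seeds; greenhouse 3 weeks; % visual damage (0% = control, 100% = dead).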
`CSCc1c(I)ccc(C(=O)Nc2nnnn2C)c1Cl` [Example 1-362]: the “Herbicidal action against MATIN” value turned out to be 70.

Still in this assay, the particulars now being: dosage 320 g/ha.
Turning to `CCn1nnnc1NC(=O)c1ccc(C(F)(F)F)c(CS(=O)(=O)CC)c1C` [Example 2-88], the “herbicidal action MATIN” value stood at 100%.
Same read-out and setting: to `CCn1nnnc1NC(=O)c1ccc(C(F)F)c(C[S+](C)[O-])c1C` (stereo not drawn) [Example 2-108] belongs 100%; to `Cc1ccc(C(=O)Nc2nnnn2C)c(Cl)c1C[S+](C)[O-]` (racemic) [Example 1-288], 100%; to `CCCn1nnnc1NC(=O)c1ccc(I)c(C[S+](C)[O-])c1Cl` (stereo not drawn) [Example 3-363], 100%.

The same assay, now with this note: dosage 320 g/ha, scored visually after 3 weeks vs untreated controls (100% = plants have died).
`CSCc1c(I)ccc(C(=O)Nc2nnnn2C)c1Cl` [Example 1-362]: the “herbicidal activity MATIN” value stood at 100%.
`CCn1nnnc1NC(=O)c1ccc(C(F)F)c(CS(=O)(=O)CC)c1Cl` [Example 2-325]: the “herbicidal activity MATIN” value is reported as 100%.
On the same count and under the same terms, to `COCC[S+]([O-])Cc1c(C(F)(F)F)ccc(C(=O)Nc2nnnn2C)c1Cl` (racemic) [Example 1-306] belongs 100%; to `Cn1nnnc1NC(=O)c1ccc(C(F)(F)F)c(C[S+]([O-])C2CC2)c1Cl` (racemic) [Example 1-303], 100%; to `Cn1nnnc1NC(=O)c1ccc(C(F)(F)F)c(C[S+]([O-])CC(F)(F)F)c1Cl` (racemic) [Example 1-312], 100%.
As for `CCCn1nnnc1NC(=O)c1ccc(C(F)(F)F)c(C[S+]([O-])CC)c1Br` (stereo not drawn) [Example 3-384], the “herbicidal activity MATIN” value stood at 100%.
For `CCn1nnnc1NC(=O)c1ccc(C(F)(F)F)c(CS(C)(=O)=O)c1Cl` [Example 2-298], the “herbicidal activity MATIN” value is recorded as 100%.

For a further assay, the system named is Veronica persica. Nature of the assay: Pre-emergence herbicidal action, VERPE. The settings on record: comparative experiment, 20 g of a.i./ha. It counts as in vivo. Further details: key to Herbicidal action against VERPE: % activity: 100 = plants have died, 0 = like control plants. In a few lines:
as §1
Regarding `CSCc1c(I)ccc(C(=O)Nc2nnnn2C)c1Cl` [Example 1-362], the “Herbicidal action against VERPE” value is given as 60.

Still in this assay, the particulars now being: dosage 320 g/ha.
As for `CCn1nnnc1NC(=O)c1ccc(C(F)(F)F)c(CS(=O)(=O)CC)c1C` [Example 2-88], the “herbicidal action VERPE” value is listed as 100%.
For `CCn1nnnc1NC(=O)c1ccc(C(F)F)c(C[S+](C)[O-])c1C` (stereo not drawn) [Example 2-108], the “herbicidal action VERPE” value was found to be 100%.
Still for that read-out and setting: to `Cc1ccc(C(=O)Nc2nnnn2C)c(Cl)c1C[S+](C)[O-]` (racemic) [Example 1-288] belongs 90%.
Still for that read-out and setting: to `CCCn1nnnc1NC(=O)c1ccc(I)c(C[S+](C)[O-])c1Cl` (stereo not drawn) [Example 3-363] belongs 90%.

The same assay, now with this note: dosage 320 g/ha, scored visually after 3 weeks vs untreated controls (100% = plants have died).
For `CSCc1c(I)ccc(C(=O)Nc2nnnn2C)c1Cl` [Example 1-362], the “herbicidal activity VERPE” value is 100%.
Same read-out and setting: to `CCn1nnnc1NC(=O)c1ccc(C(F)F)c(CS(=O)(=O)CC)c1Cl` [Example 2-325] belongs 100%; to `COCC[S+]([O-])Cc1c(C(F)(F)F)ccc(C(=O)Nc2nnnn2C)c1Cl` (racemic) [Example 1-306], 90%.
On the same count and under the same terms, to `Cn1nnnc1NC(=O)c1ccc(C(F)(F)F)c(C[S+]([O-])C2CC2)c1Cl` (racemic) [Example 1-303] belongs 100%; to `Cn1nnnc1NC(=O)c1ccc(C(F)(F)F)c(C[S+]([O-])CC(F)(F)F)c1Cl` (racemic) [Example 1-312], 100%.
Regarding `CCCn1nnnc1NC(=O)c1ccc(C(F)(F)F)c(C[S+]([O-])CC)c1Br` (stereo not drawn) [Example 3-384], the “herbicidal activity VERPE” value came to 100%.
Still for that read-out and setting: to `CCn1nnnc1NC(=O)c1ccc(C(F)(F)F)c(CS(C)(=O)=O)c1Cl` [Example 2-298] belongs 100%.

The test system of a further assay is Abutilon theophrasti. Nature of the assay: Post-emergence herbicidal action, ABUTH. Format: in vivo. Further details: key: % herbicidal action vs untreated; 100 = plants died, 0 = like control. To be noted: Dosage 80 g/ha. In outline:
(§2)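 WP or EC formulations, diluted in water at 600 to 800 l/ha with 0.2% wetting agent, are sprayed onto green parts of one-leaf-stage plants grown in sandy loam. Visual assessment of percent damage relative to untreated controls follows after approximately 3 weeks in the greenhouse.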
As to `CCn1nnnc1NC(=O)c1ccc(C(F)F)c(CS(=O)(=O)CC)c1Cl` [Example 2-325], the “herbicidal action ABUTH” value is listed as 100.
As to `COCC[S+]([O-])Cc1c(C(F)(F)F)ccc(C(=O)Nc2nnnn2C)c1Cl` (racemic) [Example 1-306], the “herbicidal action ABUTH” value stood at 90.
On the same count and under the same terms, to `CCCn1nnnc1NC(=O)c1ccc(C(F)(F)F)c(C[S+]([O-])CC)c1Br` (stereo not drawn) [Example 3-384] belongs 100; to `CCn1nnnc1NC(=O)c1ccc(C(F)(F)F)c(CS(C)(=O)=O)c1Cl` [Example 2-298], 80.
Still for that read-out and setting: to `CCn1nnnc1NC(=O)c1ccc(C(F)(F)F)c(CS(=O)(=O)CC)c1C` [Example 2-88] belongs 80; to `CCn1nnnc1NC(=O)c1ccc(C(F)F)c(C[S+](C)[O-])c1C` (stereo not drawn) [Example 2-108], 100.
The same measure, in the same setting: to `Cc1ccc(C(=O)Nc2nnnn2C)c(Cl)c1C[S+](C)[O-]` (racemic) [Example 1-288] belongs 90; to `CCCn1nnnc1NC(=O)c1ccc(I)c(C[S+](C)[O-])c1Cl` (stereo not drawn) [Example 3-363], 90.

Still in this assay, the particulars now being: post-emergence, dosage 80 g/ha.
As for `CSCc1c(I)ccc(C(=O)Nc2nnnn2C)c1Cl` [Example 1-362], the “herbicidal action ABUTH” value was 100%.
Still for that read-out and setting: to `Cn1nnnc1NC(=O)c1ccc(C(F)(F)F)c(C[S+]([O-])C2CC2)c1Cl` (racemic) [Example 1-303] belongs 100%; to `Cn1nnnc1NC(=O)c1ccc(C(F)(F)F)c(C[S+]([O-])CC(F)(F)F)c1Cl` (racemic) [Example 1-312], 100%.

For another assay, the system named is Alopecurus myosuroides. Nature of the assay: Post-emergence herbicidal action, ALOMY. Format: in vivo. Further details: key: % herbicidal action vs untreated; 100 = plants died, 0 = like control. The settings on record: Dosage 80 g/ha. In outline: as §2
For the compound `CCn1nnnc1NC(=O)c1ccc(C(F)F)c(CS(=O)(=O)CC)c1Cl` [Example 2-325], the “herbicidal action ALOMY” value is listed as 80.
Turning to `COCC[S+]([O-])Cc1c(C(F)(F)F)ccc(C(=O)Nc2nnnn2C)c1Cl` (racemic) [Example 1-306], the “herbicidal action ALOMY” value was found to be 90.
The same measure, in the same setting: to `CCCn1nnnc1NC(=O)c1ccc(C(F)(F)F)c(C[S+]([O-])CC)c1Br` (stereo not drawn) [Example 3-384] belongs 80.
As to `CCn1nnnc1NC(=O)c1ccc(C(F)(F)F)c(CS(C)(=O)=O)c1Cl` [Example 2-298], the “herbicidal action ALOMY” value was 80.
On the same count and under the same terms, to `CCn1nnnc1NC(=O)c1ccc(C(F)(F)F)c(CS(=O)(=O)CC)c1C` [Example 2-88] belongs 90.
Same read-out and setting: to `CCn1nnnc1NC(=O)c1ccc(C(F)F)c(C[S+](C)[O-])c1C` (stereo not drawn) [Example 2-108] belongs 80; to `Cc1ccc(C(=O)Nc2nnnn2C)c(Cl)c1C[S+](C)[O-]` (racemic) [Example 1-288], 80.
On the same count and under the same terms, to `CCCn1nnnc1NC(=O)c1ccc(I)c(C[S+](C)[O-])c1Cl` (stereo not drawn) [Example 3-363] belongs 80.

The same assay, now with this note: comparative experiment, post-emergence, 5 g of a.i./ha.
Consider `CSCc1c(I)ccc(C(=O)Nc2nnnn2C)c1Cl` [Example 1-362], for which the “Herbicidal action against ALOMY” value worked out at 70.

Staying with this assay, now noted: post-emergence, dosage 80 g/ha.
Regarding `CSCc1c(I)ccc(C(=O)Nc2nnnn2C)c1Cl` [Example 1-362], the “herbicidal action ALOMY” value is 90%.
The same measure, in the same setting: to `Cn1nnnc1NC(=O)c1ccc(C(F)(F)F)c(C[S+]([O-])C2CC2)c1Cl` (racemic) [Example 1-303] belongs 100%; to `Cn1nnnc1NC(=O)c1ccc(C(F)(F)F)c(C[S+]([O-])CC(F)(F)F)c1Cl` (racemic) [Example 1-312], 90%.

For a further assay, the system named is Echinochloa crus-galli. Nature of the assay: Post-emergence herbicidal action, ECHCG. Format: in vivo. Further details: key: % herbicidal action vs untreated; 100 = plants died, 0 = like control. To be noted: Dosage 80 g/ha. In a few lines: as §2
Consider `CCn1nnnc1NC(=O)c1ccc(C(F)F)c(CS(=O)(=O)CC)c1Cl` [Example 2-325], for which the “herbicidal action ECHCG” value stood at 100.
In the case of `COCC[S+]([O-])Cc1c(C(F)(F)F)ccc(C(=O)Nc2nnnn2C)c1Cl` (racemic) [Example 1-306], the “herbicidal action ECHCG” value turned out to be 90.
With `CCCn1nnnc1NC(=O)c1ccc(C(F)(F)F)c(C[S+]([O-])CC)c1Br` (stereo not drawn) [Example 3-384], the “herbicidal action ECHCG” value worked out at 90.
Still for that read-out and setting: to `CCn1nnnc1NC(=O)c1ccc(C(F)(F)F)c(CS(C)(=O)=O)c1Cl` [Example 2-298] belongs 90; to `CCn1nnnc1NC(=O)c1ccc(C(F)(F)F)c(CS(=O)(=O)CC)c1C` [Example 2-88], 90; to `CCn1nnnc1NC(=O)c1ccc(C(F)F)c(C[S+](C)[O-])c1C` (stereo not drawn) [Example 2-108], 100.
Same read-out and setting: to `Cc1ccc(C(=O)Nc2nnnn2C)c(Cl)c1C[S+](C)[O-]` (racemic) [Example 1-288] belongs 90; to `CCCn1nnnc1NC(=O)c1ccc(I)c(C[S+](C)[O-])c1Cl` (stereo not drawn) [Example 3-363], 100.

The assay is the same for the next values; noted with them: post-emergence, dosage 80 g/ha.
For the compound `CSCc1c(I)ccc(C(=O)Nc2nnnn2C)c1Cl` [Example 1-362], the “herbicidal action ECHCG” value amounted to 100%.
The same measure, in the same setting: to `Cn1nnnc1NC(=O)c1ccc(C(F)(F)F)c(C[S+]([O-])C2CC2)c1Cl` (racemic) [Example 1-303] belongs 100%; to `Cn1nnnc1NC(=O)c1ccc(C(F)(F)F)c(C[S+]([O-])CC(F)(F)F)c1Cl` (racemic) [Example 1-312], 100%.

A further assay concerns Setaria viridis. Nature of the assay: Post-emergence herbicidal action, SETVI. It counts as in vivo. Further details: key: % herbicidal action vs untreated; 100 = plants died, 0 = like control. The settings on record: Dosage 80 g/ha. In outline: as §2
For `CCn1nnnc1NC(=O)c1ccc(C(F)F)c(CS(=O)(=O)CC)c1Cl` [Example 2-325], the “herbicidal action SETVI” value is 100.
Same read-out and setting: to `COCC[S+]([O-])Cc1c(C(F)(F)F)ccc(C(=O)Nc2nnnn2C)c1Cl` (racemic) [Example 1-306] belongs 90.
On the same count and under the same terms, to `CCCn1nnnc1NC(=O)c1ccc(C(F)(F)F)c(C[S+]([O-])CC)c1Br` (stereo not drawn) [Example 3-384] belongs 100.
Regarding `CCn1nnnc1NC(=O)c1ccc(C(F)(F)F)c(CS(C)(=O)=O)c1Cl` [Example 2-298], the “herbicidal action SETVI” value was 90.
Still for that read-out and setting: to `CCn1nnnc1NC(=O)c1ccc(C(F)(F)F)c(CS(=O)(=O)CC)c1C` [Example 2-88] belongs 90.
Turning to `CCn1nnnc1NC(=O)c1ccc(C(F)F)c(C[S+](C)[O-])c1C` (stereo not drawn) [Example 2-108], the “herbicidal action SETVI” value came out at 90.
On the same count and under the same terms, to `Cc1ccc(C(=O)Nc2nnnn2C)c(Cl)c1C[S+](C)[O-]` (racemic) [Example 1-288] belongs 100; to `CCCn1nnnc1NC(=O)c1ccc(I)c(C[S+](C)[O-])c1Cl` (stereo not drawn) [Example 3-363], 100.

Staying with this assay, now noted: post-emergence, dosage 80 g/ha.
Take `CSCc1c(I)ccc(C(=O)Nc2nnnn2C)c1Cl` [Example 1-362]: the “herbicidal action SETVI” value is 90%.
With `Cn1nnnc1NC(=O)c1ccc(C(F)(F)F)c(C[S+]([O-])C2CC2)c1Cl` (racemic) [Example 1-303], the “herbicidal action SETVI” value is recorded as 100%.
On the same count and under the same terms, to `Cn1nnnc1NC(=O)c1ccc(C(F)(F)F)c(C[S+]([O-])CC(F)(F)F)c1Cl` (racemic) [Example 1-312] belongs 100%.
